Experimental data as given in ChEMBL document CHEMBL4673383, “Discovery of a Pyrimidothiazolodiazepinone as a Potent and Selective Focal Adhesion Kinase (FAK) Inhibitor” (ACS Med Chem Lett, 2021).
Blank lines part the entries; values can stand above or below the compound they belong to. Activity calls are given as the source filed them. No cut-off for these calls is given here.

Key:
MDA-MB-231 [1] = assay: Antiproliferative activity against human MDA-MB-231 cells assessed as reduction in cell viability incubated for 120 hrs using ultra-low adherent 3D-spheroids by CellTiter-glo assay; assay type: functional, cell-based; details: MDA-MB-231, 120 h
MDA-MB-231 [2] = assay: Antiproliferative activity against human MDA-MB-231 cells cultured as 3D-spheroids assessed as reduction in cell viability by Celltiter-Glo assay; assay type: functional, cell-based
MDA-MB-231 [3] = assay: Antiproliferative activity against human MDA-MB-231 cells cultured as 2D-adherent monolayer assessed as reduction in cell viability by Celltiter-Glo assay; assay type: functional, cell-based
[4] = Apparent permeability of the compound across apical to basolateral side in human Caco-2 cells; assay type: ADME, cell-based
[5] = Efflux ratio of apparent permeability in human Caco-2 cells; assay type: ADME, cell-based
Mus musculus = species on record: Mus musculus; assay: Antiproliferative activity against CDH1-/-RHOAY42C/+ mouse diffuse gastric cancer organoid model assessed as reduction in cell viability at 5 uM; assay type: functional, tissue-based; details: Stomach
[6] = molecular target: Focal adhesion kinase 1 (Mus musculus) (UniProt P34152); assay: Inhibition of FAK in CDH1-/- RHOAY42C/+ mouse gastric cancer organoid model assessed as nonphosphorylated YAP at 0.1 to 20 uM incubated for 24 hrs by immunoblot analysis; assay type: tissue-based; details: Stomach, dose 0.1-20 µM
Sequence of Focal adhesion kinase 1 (Mus musculus) (P34152 whole entry): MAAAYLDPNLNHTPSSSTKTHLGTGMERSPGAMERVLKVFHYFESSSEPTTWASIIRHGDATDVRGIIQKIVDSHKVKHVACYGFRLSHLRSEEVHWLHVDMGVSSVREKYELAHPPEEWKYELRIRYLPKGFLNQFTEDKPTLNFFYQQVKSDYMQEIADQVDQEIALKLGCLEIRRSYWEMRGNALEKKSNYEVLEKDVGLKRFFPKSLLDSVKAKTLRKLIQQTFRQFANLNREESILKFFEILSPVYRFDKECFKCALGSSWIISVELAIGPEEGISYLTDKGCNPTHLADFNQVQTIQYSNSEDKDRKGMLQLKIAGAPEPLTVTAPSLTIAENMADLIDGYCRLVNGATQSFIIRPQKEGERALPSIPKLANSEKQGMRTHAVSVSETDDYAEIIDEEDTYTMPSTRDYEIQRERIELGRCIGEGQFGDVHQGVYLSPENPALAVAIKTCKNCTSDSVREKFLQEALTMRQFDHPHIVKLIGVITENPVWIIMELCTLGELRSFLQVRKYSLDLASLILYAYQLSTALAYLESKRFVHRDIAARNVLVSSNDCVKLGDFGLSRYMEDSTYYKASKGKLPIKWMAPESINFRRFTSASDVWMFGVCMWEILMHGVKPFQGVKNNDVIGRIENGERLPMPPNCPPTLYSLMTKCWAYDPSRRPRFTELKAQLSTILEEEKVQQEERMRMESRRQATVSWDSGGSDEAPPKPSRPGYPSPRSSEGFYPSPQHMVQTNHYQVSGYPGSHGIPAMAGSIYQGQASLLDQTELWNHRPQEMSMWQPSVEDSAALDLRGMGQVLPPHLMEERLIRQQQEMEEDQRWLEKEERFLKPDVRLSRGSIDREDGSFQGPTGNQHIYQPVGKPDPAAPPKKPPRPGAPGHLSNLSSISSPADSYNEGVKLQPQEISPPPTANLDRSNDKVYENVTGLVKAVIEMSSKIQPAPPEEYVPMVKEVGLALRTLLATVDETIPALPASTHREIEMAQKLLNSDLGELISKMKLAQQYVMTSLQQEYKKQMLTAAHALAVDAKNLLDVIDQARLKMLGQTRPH

[7] = molecular target: Focal adhesion kinase 1 (Mus musculus) (UniProt P34152); assay: Inhibition of FAK in CDH1-/- RHOAY42C/+ mouse gastric cancer organoid model assessed as pFAY Y397 phosphorylation at 5 uM incubated for 24 hrs by immunoblot analysis; assay type: tissue-based; details: Stomach
HT-29 [8] = assay: Antiproliferative activity against human HT-29 cells cultured as 2D-adherent monolayer assessed as reduction in cell viability by Celltiter-Glo assay; assay type: functional, cell-based
[9] = molecular target: Focal adhesion kinase 1 (Mus musculus) (UniProt P34152); assay: Inhibition of FAK in CDH1-/- RHOAY42C/+ mouse gastric cancer organoid model assessed as […] phosphorylation at 5 uM incubated for 24 hrs by immunoblot analysis; assay type: tissue-based; details: Stomach
[10] = molecular target: Focal adhesion kinase 1 (Mus musculus) (UniProt P34152); assay: Inhibition of FAK in CDH1-/- RHOAY42C/+ mouse gastric cancer organoid model assessed as total YAP/TAZ level at 5 uM incubated for 24 hrs by immunoblot analysis; assay type: tissue-based; details: Stomach
Focal adhesion kinase 1 = Focal adhesion kinase 1 (Homo sapiens, UniProt Q05397); assay: Inhibition of Focal adhesion kinase (unknown origin) using Tyr 07 peptide substrate incubated for 60 mins at room temperature followed by 60 mins development reaction measured fluorescence by Z-LYTE assay
Sequence of Focal adhesion kinase 1 (Q05397 whole entry): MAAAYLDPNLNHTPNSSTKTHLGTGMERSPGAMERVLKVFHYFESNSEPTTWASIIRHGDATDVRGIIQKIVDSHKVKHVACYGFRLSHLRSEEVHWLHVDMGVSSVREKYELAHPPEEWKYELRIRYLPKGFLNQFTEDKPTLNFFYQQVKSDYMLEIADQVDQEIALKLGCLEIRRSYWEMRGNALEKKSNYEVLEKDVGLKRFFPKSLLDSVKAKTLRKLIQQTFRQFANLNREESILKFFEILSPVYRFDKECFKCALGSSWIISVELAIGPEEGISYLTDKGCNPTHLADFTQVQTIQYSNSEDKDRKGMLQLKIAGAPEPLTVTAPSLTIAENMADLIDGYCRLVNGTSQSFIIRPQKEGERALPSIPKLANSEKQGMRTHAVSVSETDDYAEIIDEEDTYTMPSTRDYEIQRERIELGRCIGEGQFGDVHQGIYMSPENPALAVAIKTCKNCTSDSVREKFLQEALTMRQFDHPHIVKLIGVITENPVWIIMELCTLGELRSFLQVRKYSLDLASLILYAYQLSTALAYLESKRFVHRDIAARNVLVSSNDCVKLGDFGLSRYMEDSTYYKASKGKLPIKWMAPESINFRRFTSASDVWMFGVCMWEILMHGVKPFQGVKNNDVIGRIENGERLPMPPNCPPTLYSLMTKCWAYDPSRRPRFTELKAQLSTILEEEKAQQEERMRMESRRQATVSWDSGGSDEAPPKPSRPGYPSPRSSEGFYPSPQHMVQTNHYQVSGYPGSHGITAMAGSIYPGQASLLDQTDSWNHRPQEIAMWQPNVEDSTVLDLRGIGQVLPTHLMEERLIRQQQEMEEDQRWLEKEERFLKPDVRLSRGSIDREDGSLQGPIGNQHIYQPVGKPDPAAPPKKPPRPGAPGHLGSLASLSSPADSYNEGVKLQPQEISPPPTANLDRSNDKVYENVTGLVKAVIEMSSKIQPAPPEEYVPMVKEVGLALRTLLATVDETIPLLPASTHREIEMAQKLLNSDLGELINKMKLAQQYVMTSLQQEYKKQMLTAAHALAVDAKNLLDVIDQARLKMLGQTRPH

CDK7/Cyclin H/MNAT1 = CDK7/Cyclin H/MNAT1 (Homo sapiens, UniProt P50613); assay: Inhibition of human CDK7/cyclinH/MAT1; assay type: protein-complex assay
[11] = molecular target: Protein-tyrosine kinase 2-beta (Homo sapiens, UniProt Q14289); assay: Inhibition of Pyk2 (unknown origin)
Sequence of Protein-tyrosine kinase 2-beta (Q14289 whole entry): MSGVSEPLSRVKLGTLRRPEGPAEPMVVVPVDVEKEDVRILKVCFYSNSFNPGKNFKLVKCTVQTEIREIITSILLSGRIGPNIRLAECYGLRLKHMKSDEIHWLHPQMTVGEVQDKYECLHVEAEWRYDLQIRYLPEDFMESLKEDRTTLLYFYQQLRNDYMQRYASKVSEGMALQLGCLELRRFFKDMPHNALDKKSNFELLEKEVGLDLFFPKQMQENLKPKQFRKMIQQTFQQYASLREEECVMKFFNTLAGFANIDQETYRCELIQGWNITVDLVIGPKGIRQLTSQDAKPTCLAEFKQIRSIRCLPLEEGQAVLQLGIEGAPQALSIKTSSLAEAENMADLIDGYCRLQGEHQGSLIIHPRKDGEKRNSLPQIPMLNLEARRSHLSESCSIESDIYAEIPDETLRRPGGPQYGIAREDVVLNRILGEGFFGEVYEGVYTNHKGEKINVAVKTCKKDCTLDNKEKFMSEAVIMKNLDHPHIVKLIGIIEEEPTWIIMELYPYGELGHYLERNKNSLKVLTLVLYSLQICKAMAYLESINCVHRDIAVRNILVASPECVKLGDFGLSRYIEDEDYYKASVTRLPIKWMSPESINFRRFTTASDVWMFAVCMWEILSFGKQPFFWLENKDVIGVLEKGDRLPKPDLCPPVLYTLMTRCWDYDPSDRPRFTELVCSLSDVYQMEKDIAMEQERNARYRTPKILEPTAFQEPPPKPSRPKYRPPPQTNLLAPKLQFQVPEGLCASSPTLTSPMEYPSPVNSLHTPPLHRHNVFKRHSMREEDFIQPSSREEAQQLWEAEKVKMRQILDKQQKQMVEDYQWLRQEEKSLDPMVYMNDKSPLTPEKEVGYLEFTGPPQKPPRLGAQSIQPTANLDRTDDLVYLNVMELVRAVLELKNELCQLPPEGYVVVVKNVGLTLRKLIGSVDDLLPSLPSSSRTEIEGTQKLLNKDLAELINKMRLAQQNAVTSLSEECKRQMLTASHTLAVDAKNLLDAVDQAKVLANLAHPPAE

[12] = molecular target: Glycogen synthase kinase-3 beta (Homo sapiens, UniProt P49841); assay: Inhibition of human GSK3beta
Sequence of Glycogen synthase kinase-3 beta (P49841 whole entry): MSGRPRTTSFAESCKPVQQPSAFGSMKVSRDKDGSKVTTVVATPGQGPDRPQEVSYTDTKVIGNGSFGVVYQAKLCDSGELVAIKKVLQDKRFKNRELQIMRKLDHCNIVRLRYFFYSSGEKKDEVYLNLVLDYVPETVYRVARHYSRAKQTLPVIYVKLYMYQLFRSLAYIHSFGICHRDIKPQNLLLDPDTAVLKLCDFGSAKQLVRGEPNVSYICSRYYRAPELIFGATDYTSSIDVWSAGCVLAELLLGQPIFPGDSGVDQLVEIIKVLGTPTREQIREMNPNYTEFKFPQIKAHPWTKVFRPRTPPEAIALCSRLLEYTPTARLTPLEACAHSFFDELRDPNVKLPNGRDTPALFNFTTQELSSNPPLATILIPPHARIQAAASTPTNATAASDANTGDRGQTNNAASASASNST

[13] = molecular target: Cyclin-dependent kinase 1/cyclin B1 (Homo sapiens, UniProt P06493); assay: Inhibition of human CDK1/cyclinB; assay type: protein-complex assay
Sequence of Cyclin-dependent kinase 1/cyclin B1 (P06493 whole entry): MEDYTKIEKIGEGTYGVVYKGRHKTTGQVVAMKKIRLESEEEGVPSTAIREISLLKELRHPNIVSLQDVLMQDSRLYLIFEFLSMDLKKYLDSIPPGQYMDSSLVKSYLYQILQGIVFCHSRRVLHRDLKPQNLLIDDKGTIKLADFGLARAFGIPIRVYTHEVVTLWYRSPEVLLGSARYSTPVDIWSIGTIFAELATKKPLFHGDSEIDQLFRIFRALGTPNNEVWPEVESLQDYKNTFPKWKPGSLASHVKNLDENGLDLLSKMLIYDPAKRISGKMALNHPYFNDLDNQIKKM
Sequence of Cyclin-dependent kinase 1/cyclin B1 (P14635 whole entry, further chain): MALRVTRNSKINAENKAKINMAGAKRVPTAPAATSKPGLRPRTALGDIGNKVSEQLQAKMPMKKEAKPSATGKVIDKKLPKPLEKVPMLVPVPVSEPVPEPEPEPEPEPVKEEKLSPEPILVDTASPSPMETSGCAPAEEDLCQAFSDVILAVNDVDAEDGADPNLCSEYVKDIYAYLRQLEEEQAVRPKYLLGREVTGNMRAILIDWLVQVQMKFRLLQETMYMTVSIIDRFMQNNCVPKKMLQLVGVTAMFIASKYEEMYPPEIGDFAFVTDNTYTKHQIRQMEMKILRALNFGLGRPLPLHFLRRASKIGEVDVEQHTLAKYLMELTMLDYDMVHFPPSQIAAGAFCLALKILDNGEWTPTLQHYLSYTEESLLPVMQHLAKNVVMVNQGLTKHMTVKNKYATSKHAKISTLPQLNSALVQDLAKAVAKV

HT-29 [14] = assay: Antiproliferative activity against human HT-29 cells cultured as 3D-spheroids assessed as reduction in cell viability by Celltiter-Glo assay; assay type: functional, cell-based
[15] = AUC(infinity) in C57BI/6 male mouse at 10 mg/kg, po; assay type: ADME, organism-based; parameters: route oral, time infinity, dose 10 mg/kg; details: C57BL/6, mouse, in vivo
Homo sapiens = species on record: Homo sapiens; assay: Antiproliferative activity against human gastric organoid assessed as reduction in cell viability by Celltiter-Glo assay; assay type: functional, tissue-based; details: Stomach
[16] = molecular target: Serine/threonine-protein kinase PLK1 (Homo sapiens) (UniProt P53350); assay: Inhibition of PLK1 (unknown origin) assessed as cell cycle disruption
Sequence of Serine/threonine-protein kinase PLK1 (Homo sapiens) (P53350 whole entry): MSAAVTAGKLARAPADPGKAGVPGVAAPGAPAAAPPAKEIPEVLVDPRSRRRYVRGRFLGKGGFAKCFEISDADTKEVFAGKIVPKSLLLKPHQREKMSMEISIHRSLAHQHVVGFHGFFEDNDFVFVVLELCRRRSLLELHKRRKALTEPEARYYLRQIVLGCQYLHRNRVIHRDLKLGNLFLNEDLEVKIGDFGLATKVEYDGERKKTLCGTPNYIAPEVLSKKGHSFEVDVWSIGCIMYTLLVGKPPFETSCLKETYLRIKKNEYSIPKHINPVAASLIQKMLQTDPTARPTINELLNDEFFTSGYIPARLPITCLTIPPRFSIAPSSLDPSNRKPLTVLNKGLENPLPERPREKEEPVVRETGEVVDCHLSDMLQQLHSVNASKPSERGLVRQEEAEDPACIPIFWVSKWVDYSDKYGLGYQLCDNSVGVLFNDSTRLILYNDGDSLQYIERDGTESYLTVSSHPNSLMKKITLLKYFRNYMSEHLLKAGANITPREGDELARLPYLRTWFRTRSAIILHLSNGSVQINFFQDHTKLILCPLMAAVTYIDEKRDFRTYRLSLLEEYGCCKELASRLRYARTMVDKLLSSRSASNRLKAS

[17] = Cmax in C57BI/6 male mouse at 10 mg/kg, po; assay type: ADME, organism-based; parameters: route oral, dose 10 mg/kg; details: C57BL/6, mouse, in vivo
[18] = molecular target: Focal adhesion kinase 1 (Mus musculus) (UniProt P34152); assay: Inhibition of FAK in mouse gastric organoid by Immunoblotting
MDA-MB-231 [19] = assay: Inhibition of cell migration in human MDA-MB-231 cells incubated for 24 hrs by microscopy method; assay type: functional, cell-based
[20] = Tmax in C57BI/6 male mouse at 10 mg/kg, po; assay type: ADME, organism-based; details: C57BL/6, mouse, in vivo
[21] = Clearance in C57BI/6 male mouse at 2 mg/kg, iv; assay type: ADME, organism-based; details: C57BL/6, mouse, in vivo
[22] = Oral bioavailability in C57BI/6 male mouse at 10 mg/kg; assay type: ADME, organism-based; details: C57BL/6, mouse, in vivo
[23] = Half life in C57BI/6 male mouse at 2 mg/kg, iv; assay type: ADME, organism-based; details: C57BL/6, mouse, in vivo
[24] = Volume of distribution at steady-state in C57BI/6 male mouse at 2 mg/kg, iv; assay type: ADME, organism-based; details: C57BL/6, mouse, in vivo, read-out: Vdss
[25] = molecular target: Focal adhesion kinase 1 (Mus musculus) (UniProt P34152); assay: Inhibition of FAK in CDH1-/- RHOAY42C/+ mouse gastric cancer organoid model assessed as […] phosphorylation at 0.1 to 20 uM incubated for 24 hrs by immunoblot analysis; assay type: tissue-based; details: Stomach, dose 0.1-20 µM

IC50 (MDA-MB-231 [1]): > 10 µM
SMILES: COc1cc(C(=O)N2CCC(N3CCN(C)CC3)CC2)ccc1Nc1ncc2c(n1)N(C)c1sc(C)nc1C(=O)N2C

IC50 (MDA-MB-231 [1]): 0.93 µM
Papp A→B [4]: 8.3 ×10⁻⁶ cm/s
efflux ratio [5]: 2.2
SMILES: CCN1C(=O)c2nc(C)sc2N(C)c2nc(Nc3ccc(N4CCC(N5CCN(C)CC5)CC4)cc3OC)ncc21
Activity (MDA-MB-231 [2]): Active
Activity (MDA-MB-231 [3]): inactive

IC50 (MDA-MB-231 [1]): > 10 µM
SMILES: CCN1c2nc(Nc3ccc(N4CCC(N5CCN(C)CC5)CC4)cc3OC)ncc2N(C)C(=O)c2nc(C)sc21

IC50 (Focal adhesion kinase 1): > 10 µM
SMILES: COc1cc(N2CCC(N3CCN(C)CC3)CC2)ccc1Nc1ncc2c(n1)N(C)c1sc(-c3ccccc3)nc1C(=O)N2C

IC50 (MDA-MB-231 [1]): > 10 µM
IC50 (Focal adhesion kinase 1): 0.525 µM
SMILES: COc1cc(N2CCC(N3CCN(C)CC3)CC2)ccc1Nc1ncc2c(n1)N(C)c1oc(C)nc1C(=O)N2C

IC50 (MDA-MB-231 [1]): 6.1 µM
SMILES: CCOc1cc(N2CCN(C)CC2)ccc1Nc1ncc2c(n1)N(C)c1sc(C)nc1C(=O)N2C

IC50 (MDA-MB-231 [1]): 2.3 µM
SMILES: COc1cc(N2CCN(C)CC2)ccc1Nc1ncc2c(n1)N(C)c1sc(C)nc1C(=O)N2C
Activity (MDA-MB-231 [2]): Active
Activity (MDA-MB-231 [3]): inactive

AUC(0-inf) [15]: 1820 ng·h/mL
inhibition [16]: inactive
Cmax [17]: 420 nM
Papp A→B [4]: 5.8 ×10⁻⁶ cm/s
inhibition [18]: Active
Tmax [20]: 4 h
clearance [21]: 18.5 mL/min/kg
bioavailability [22]: 18.3%
half-life [23]: 5.29 h
Vd [24]: 4.07 L/kg
inhibition [25]: Active
SMILES: COc1cc(N2CCC(N3CCN(C)CC3)CC2)ccc1Nc1ncc2c(n1)N(C)c1sc(C)nc1C(=O)N2C
Activity (Homo sapiens): Dose-dependent effect
Activity (MDA-MB-231 [2]): Active
Activity (MDA-MB-231 [3]): inactive
inhibition (MDA-MB-231 [19]): Active
Activity (HT-29 [8]): inactive
Activity (HT-29 [14]): inactive

Second part, the compound before the results:

SMILES: CNC(=O)c1ccc(Nc2ncc(C(F)(F)F)c(NCc3nccnc3N(C)S(C)(=O)=O)n2)cc1
Activity (Mus musculus): Active
inhibition [6]: Active
inhibition [7]: Active
Activity (HT-29 [8]): Active
inhibition [9]: Active
inhibition [10]: Active

SMILES: COc1cc(N2CCN(C)CC2)c(C)cc1Nc1ncc2c(n1)N(C)c1sc(C)nc1C(=O)N2C
IC50 (MDA-MB-231 [1]): 7.7 µM

SMILES: Cc1nc2c(s1)N(C)c1nc(Nc3ccc4c(c3)CCC(=O)N4)ncc1N(C)C2=O
IC50 (MDA-MB-231 [1]): > 10 µM

SMILES: Cc1nc2c(s1)N(C)c1nc(Nc3ccc(N4CCN(C)CC4)cc3OCCO)ncc1N(C)C2=O
IC50 (Focal adhesion kinase 1): 0.0465 µM

SMILES: CS(=O)(=O)c1cccc(CNc2nc(Nc3ccc4c(c3)CCC(=O)N4)ncc2C(F)(F)F)c1
IC50 (CDK7/Cyclin H/MNAT1): < 1 µM
IC50 [11]: < 1 µM
IC50 [12]: < 1 µM
IC50 [13]: < 1 µM
Activity (HT-29 [8]): Active

SMILES: COc1cc2c(cc1Nc1ncc3c(n1)N(C)c1sc(C)nc1C(=O)N3C)CN(C)CC2
IC50 (MDA-MB-231 [1]): > 10 µM

SMILES: COc1cc(N2CCN(C)CC2)ccc1Nc1ncc2c(n1)N(C)c1ncsc1C(=O)N2
IC50 (Focal adhesion kinase 1): > 10 µM

SMILES: COc1cc(C2CCN(C)CC2)ccc1Nc1ncc2c(n1)N(C)c1sc(C)nc1C(=O)N2C
Activity (MDA-MB-231 [2]): Active
Activity (MDA-MB-231 [3]): inactive
IC50 (MDA-MB-231 [1]): 3.7 µM

SMILES: COc1cc(N2CCN(S(C)(=O)=O)CC2)ccc1Nc1ncc2c(n1)N(C)c1sc(C)nc1C(=O)N2C
IC50 (MDA-MB-231 [1]): > 10 µM

SMILES: CNC(=O)c1ccccc1Nc1cc(Nc2ccc(N3CCOCC3)cc2OC)ncc1C(F)(F)F
Activity (HT-29 [8]): Active
Activity (HT-29 [14]): Active

SMILES: CNC(=O)c1ccc(Nc2ncc3c(n2)N(C)c2sc(C)nc2C(=O)N3C)cc1
IC50 (MDA-MB-231 [1]): 5.9 µM

SMILES: COc1cc(N2CCN(C)CC2)ccc1Nc1ncc2c(n1)N(C)c1cn(C)nc1C(=O)N2
IC50 (Focal adhesion kinase 1): 0.123 µM

SMILES: COc1cc(N2CCNCC2)ccc1Nc1ncc2c(n1)N(C)c1sc(C)nc1C(=O)N2C
Activity (MDA-MB-231 [2]): Active
Activity (MDA-MB-231 [3]): inactive
IC50 (MDA-MB-231 [1]): 2.5 µM

SMILES: COc1cc(N2CCN(CCO)CC2)ccc1Nc1ncc2c(n1)N(C)c1sc(C)nc1C(=O)N2C
IC50 (MDA-MB-231 [1]): > 10 µM

SMILES: COc1cc(N2CCN(C)CC2)ccc1Nc1ncc2c(n1)N(C)c1ccccc1C(=O)N2
IC50 (Focal adhesion kinase 1): > 10 µM

SMILES: CNC(=O)c1ccc(Nc2ncc3c(n2)N(C)c2sc(C)nc2C(=O)N3C)c(OC)c1
IC50 (MDA-MB-231 [1]): > 10 µM
